Test [1] deals with T1, recombinant human FLAP protein (Homo sapiens, UniProt P20292).
T1 construct: made in house; host or cells: Sf9 insect cells (100,000×g membrane pellet used)
T1 sequence (P20292 1-161): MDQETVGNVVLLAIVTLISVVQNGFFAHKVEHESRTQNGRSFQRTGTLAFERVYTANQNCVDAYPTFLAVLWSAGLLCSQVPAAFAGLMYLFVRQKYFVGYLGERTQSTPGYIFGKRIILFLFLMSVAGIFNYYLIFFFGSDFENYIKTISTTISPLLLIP
Nature of the test: FLAP binding assay (SPA, displacement of [125I]L-691,831). Particulars: membranes of sf9 cells expressing recombinant human FLAP; [125I]L-691,831 probe; read-out: FLAP binding IC50. The method in brief: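 Membranes from sf9 cells expressing human FLAP in pH 7.5 Tris buffer (MgCl2, EDTA, PMSF). Non-specific binding defined with 10 μM cold L-691,831.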
(Displacement assays read how much labelled ligand stays bound in the presence of the test substance.)

Test [2] deals with synthesis of LTB4 in human whole blood. The test can be described thus: Human whole blood assay (inhibition of LTB4 synthesis, calcimycin stimulated). It is filed as cell-based. Particulars: heparinized human whole blood, calcimycin 20 μM, plasma LTB4. The method in brief: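 Steps: compound plus heparinized human whole blood, 15 min at 37° C; add calcimycin to 20 μM final; incubate another 30 min at 37° C; centrifuge at low speed and collect plasma; measure LTB4 with a homogeneous time-resolved fluorescence immunoassay.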

As for `CC(C)C(C)(c1ccc(-c2cnc(N)nc2)cc1)c1noc(CC(C)(C)O)n1` (centres unmarked) [Example 225, 1-(3-{1-[4-(2-Amino-pyrimidin-5-yl)-phenyl]-1,2-dimethyl-propyl}-[1,2,4]oxadiazol-5-yl)-2-methyl-propan-2-ol], the 50% inhibitory concentration (IC50) in test [1] worked out at 16 nM; in test [2] it was 350 nM.
In the same order, the values of `CNc1ncc(-c2ccc([C@](C)(c3noc(-c4cnn(CC(=O)N(C)C)c4)n3)C3CC3)cc2)cn1` [Example 226, 2-[4-(3-{(R)-1-Cyclopropyl-1-[4-(2-methylamino-pyrimidin-5-yl)-phenyl]-ethyl}-[1,2,4]oxadiazol-5-yl)-pyrazol-1-yl]-N,N-dimethyl-acetamide] are 2 nM and 30 nM.
In the same order, the values of `COCCOCc1nc(C(C)(c2ccc(-c3cnc(N)nc3)cc2)C(C)C)no1` (centres unmarked) [Example 229, 5-(4-{1-[5-(2-Methoxy-ethoxymethyl)-[1,2,4]oxadiazol-3-yl]-1,2-dimethyl-propyl}-phenyl)-pyrimidin-2-ylamine] are 99 nM and 550 nM.
With `CNC(=O)Cn1cc(-c2nc([C@@](C)(c3ccc(-c4cnc(N)nc4)cc3)C3CC3)no2)cn1` [Example 230, 2-[4-(3-{(R)-1-[4-(2-Amino-pyrimidin-5-yl)-phenyl]-1-cyclopropyl-ethyl}-[1,2,4]oxadiazol-5-yl)-pyrazol-1-yl]-N-methyl-acetamide], the IC50 stood at 3.8 nM in test [1] and 160 nM in test [2].
The matching figures for `CNC(=O)Cn1cc(-c2nc([C@](C)(c3ccc(-c4cnc(N)nc4)cc3)C3CC3)no2)cn1` [Example 231, 2-[4-(3-{(S)-1-[4-(2-Amino-pyrimidin-5-yl)-phenyl]-1-cyclopropyl-ethyl}-[1,2,4]oxadiazol-5-yl)-pyrazol-1-yl]-N-methyl-acetamide]: 120 nM and 700 nM.
The matching figures for `COCCc1nc(C(C)(c2ccc(-c3cnc(N)nc3)cc2)C(C)C)no1` (centres unmarked) [Example 232, 5-(4-{1-[5-(2-Methoxy-ethyl)-[1,2,4]oxadiazol-3-yl]-1,2-dimethyl-propyl}-phenyl)-pyrimidin-2-ylamine]: 37 nM and 370 nM.
In the same order, the values of `CC(C)C(C)(c1ccc(-c2cnc(N)nc2)cc1)c1noc(N2C3CCC2CC(O)C3)n1` (centres unmarked) [Example 235, 8-(3-{1-[4-(2-Amino-pyrimidin-5-yl)-phenyl]-1,2-dimethyl-propyl}-[1,2,4]oxadiazol-5-yl)-8-aza-bicyclo[3.2.1]octan-3-ol] are 29 nM and 780 nM.
Take `CC(C)C(C)(c1ccc(-c2cnc(N)nc2)cc1)c1noc(NC2CCN(C)CC2)n1` (centres unmarked) [Example 236, 5-(4-{1,2-Dimethyl-1-[5-(1-methyl-piperidin-4-ylamino)-[1,2,4]oxadiazol-3-yl]-propyl}-phenyl)-pyrimidin-2-ylamine]: the half-inhibitory concentration (IC50) was 89 nM in test [1] and 1300 nM in test [2].
In the same order, the values of `CC(C)C(C)(c1ccc(-c2cnc(N)nc2)cc1)c1noc(NC2CCC(O)CC2)n1` (centres unmarked) [Example 237, 4-(3-{1-[4-(2-Amino-pyrimidin-5-yl)-phenyl]-1,2-dimethyl-propyl}-[1,2,4]oxadiazol-5-ylamino)-cyclohexanol] are 26 nM and 470 nM.
For `CC1(O)CCN(c2nc(C(C)(c3ccc(-c4cnc(N)nc4)cc3)C3CC3)no2)CC1` (centres unmarked) [Example 238, 1-(3-{1-[4-(2-Amino-pyrimidin-5-yl)-phenyl]-1-cyclopropyl-ethyl}-[1,2,4]oxadiazol-5-yl)-4-methyl-piperidin-4-ol], the half-maximal inhibitory concentration (IC50) in test [1] came out at 5 nM; in test [2], 29 nM.
The matching figures for `CN(C)C(=O)Cn1cc(-c2nc(C(C)(c3ccc(-c4cnc5c(c4)OCCN5)cc3)C3CC3)no2)cn1` (centres unmarked) [Example 239, 2-[4-(3-{1-Cyclopropyl-1-[4-(3,4-dihydro-2H-pyrido[3,2-b][1,4]oxazin-7-yl)-phenyl]-ethyl}-[1,2,4]oxadiazol-5-yl)-pyrazol-1-yl]-N,N-dimethyl-acetamide]: 4.1 nM and 290 nM.
For `Cc1nc(N)ncc1-c1ccc(C(C)(c2noc(-c3cnn(CC(=O)N(C)C)c3)n2)C2CC2)cc1` (centres unmarked) [Example 240, 2-[4-(3-{1-[4-(2-Amino-4-methyl-pyrimidin-5-yl)-phenyl]-1-cyclopropyl-ethyl}-[1,2,4]oxadiazol-5-yl)-pyrazol-1-yl]-N,N-dimethyl-acetamide], the figures for the IC50 in test [1] and in test [2] were 15 nM and 190 nM, respectively.
In the case of `CN(C)C(=O)Cn1cc(-c2nc(C(C)(c3ccc(-c4cnc5c(c4)CCN5)cc3)C3CC3)no2)cn1` (centres unmarked) [Example 241, 2-[4-(3-{1-Cyclopropyl-1-[4-(2,3-dihydro-1H-pyrrolo[2,3-b]pyridin-5-yl)-phenyl]-ethyl}-[1,2,4]oxadiazol-5-yl)-pyrazol-1-yl]-N,N-dimethyl-acetamide], the results for the IC50 in test [1] and in test [2] were 3.4 nM and 170 nM, respectively.
The matching figures for `CN(C)C(=O)Cn1cc(-c2nc(C(C)(c3ccc(-c4cnc5[nH]ccc5c4)cc3)C3CC3)no2)cn1` (centres unmarked) [Example 242, 2-[4-(3-{1-Cyclopropyl-1-[4-(1H-pyrrolo[2,3-b]pyridin-5-yl)-phenyl]-ethyl}-[1,2,4]oxadiazol-5-yl)-pyrazol-1-yl]-N,N-dimethyl-acetamide]: 5.7 nM and 310 nM.
The matching figures for `CN(C)C(=O)Cn1cc(-c2nc(C(C)(c3ccc(-c4cnc(N)c(F)c4)cc3)C3CC3)no2)cn1` (centres unmarked) [Example 243, 2-[4-(3-{1-[4-(6-Amino-5-fluoro-pyridin-3-yl)-phenyl]-1-cyclopropyl-ethyl}-[1 ,2,4]oxadiazol-5-yl)-pyrazol-1-yl]-N,N-dimethyl-acetamide]: 12 nM and 170 nM.
The matching figures for `Cc1nc(N)ccc1-c1ccc(C(C)(c2noc(-c3cnn(CC(=O)N(C)C)c3)n2)C2CC2)cc1` (centres unmarked) [Example 244, 2-[4-(3-{1-[4-(6-Amino-2-methyl-pyridin-3-yl)-phenyl]-1-cyclopropyl-ethyl}-[1,2,4]oxadiazol-5-yl)-pyrazol-1-yl]-N,N-dimethyl-acetamide]: 25 nM and 270 nM.
Take `Cc1nc(N)cnc1-c1ccc(C(C)(c2noc(-c3cnn(CC(=O)N(C)C)c3)n2)C2CC2)cc1` (centres unmarked) [Example 245, 2-[4-(3-{1-[4-(5-Amino-3-methyl-pyrazin-2-yl)-phenyl]-1-cyclopropyl-ethyl}-[1,2,4]oxadiazol-5-yl)-pyrazol-1-yl]-N,N-dimethyl-acetamide]: the figures for the IC50 in test [1] and in test [2] were 28 nM and 310 nM, respectively.
In the same order, the values of `CN(C)C(=O)Cn1cc(-c2nc(C(C)(c3ccc(-c4cnc(N)c(C(F)(F)F)c4)cc3)C3CC3)no2)cn1` (centres unmarked) [Example 246, 2-[4-(3-{1-[4-(6-Amino-5-trifluoromethyl-pyridin-3-yl)-phenyl]-1-cyclopropyl-ethyl}-[1,2,4]oxadiazol-5-yl)-pyrazol-1-yl]-N,N-dimethyl-acetamide] are 19 nM and 430 nM.
In the same order, the values of `CN(C)C(=O)Cn1cc(-c2nc(C(C)(c3ccc(-c4cnc5[nH]ccc5n4)cc3)C3CC3)no2)cn1` (centres unmarked) [Example 247, 2-[4-(3-{1-Cyclopropyl-1-[4-(5H-pyrrolo[2,3-b]pyrazin-2-yl)-phenyl]-ethyl}-[1,2,4]oxadiazol-5-yl)-pyrazol-1-yl]-N,N-dimethyl-acetamide] are 5.9 nM and 300 nM.

What is called IC50 is the concentration needed to halve the response being measured.

These data come from patent US8658661B2, “Oxadiazole inhibitors of leukotriene production” (Boehringer Ingelheim International GmbH, priority 2010, dated 2014).
